Consider 24 molecules from ChEMBL document CHEMBL3871299, “Design and synthesis of new piperidone grafted acetylcholinesterase inhibitors” (Bioorg Med Chem Lett, 2017).

For data set [1], the target named is T1, Acetylcholinesterase (Homo sapiens, UniProt P22303). The data set can be described thus: Inhibition of acetylcholinesterase (unknown origin) assessed as reduction in formation of 5-thio-2-nitrobenzoate from acetylthiocholine iodide preincubated for 15 mins followed by substrate addition measured after 30 mins by Ellman's method.
T1 sequence (P22303 whole entry): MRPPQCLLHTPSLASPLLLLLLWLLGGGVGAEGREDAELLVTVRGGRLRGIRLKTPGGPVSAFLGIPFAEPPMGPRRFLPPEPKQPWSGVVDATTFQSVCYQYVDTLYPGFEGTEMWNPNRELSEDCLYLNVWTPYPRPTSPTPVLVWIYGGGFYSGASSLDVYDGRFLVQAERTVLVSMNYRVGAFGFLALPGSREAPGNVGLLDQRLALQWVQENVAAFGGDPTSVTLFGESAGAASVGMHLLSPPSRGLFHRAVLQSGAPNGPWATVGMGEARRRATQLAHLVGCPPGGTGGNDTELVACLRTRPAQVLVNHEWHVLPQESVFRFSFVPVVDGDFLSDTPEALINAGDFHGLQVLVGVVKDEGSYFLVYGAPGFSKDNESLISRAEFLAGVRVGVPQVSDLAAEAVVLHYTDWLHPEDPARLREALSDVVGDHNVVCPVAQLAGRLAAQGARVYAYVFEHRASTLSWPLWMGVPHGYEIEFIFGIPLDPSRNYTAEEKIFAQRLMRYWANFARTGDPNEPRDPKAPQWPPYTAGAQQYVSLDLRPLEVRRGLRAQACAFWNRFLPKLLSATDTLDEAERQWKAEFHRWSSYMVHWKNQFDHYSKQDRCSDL
Data set [2] concerns the target T1, Acetylcholinesterase. Briefly: Inhibition of acetylcholinesterase (unknown origin) assessed as reduction in formation of 5-thio-2-nitrobenzoate from acetylthiocholine iodide at 5 ug/ml preincubated for 15 mins followed by substrate addition measured after 30 mins by Ellman's method.
Data set [3] in a line: Cytotoxicity against human SH-SY5Y cells assessed as reduction in cell viability at 0.2 to 40 uM measured after 24 hrs by MTT assay. It is filed as toxicity, cell-based.

Structures are written as SMILES.

Take `Brc1ccc(C=C2CNCC3=C2N=C2SC=C(c4ccc5ccccc5c4)N2C3c2ccc(Br)cc2)cc1` (configuration not stated): the 50% inhibitory concentration (IC50) at Acetylcholinesterase [1] amounted to 730 nM. The inhibition at Acetylcholinesterase [2] amounted to 65.7%. In addition, in data set [3], the Activity entry is “Non-Toxic”.
On to `O=C1/C(=C/c2ccc(Cl)cc2)CN(Cc2ccc3ccccc3c2)C/C1=C\c1ccc(Cl)cc1`, for which, on Acetylcholinesterase [2], the inhibition is 42.4%.
Turning to `Cc1ccc(C=C2CNCC3=C2N=C2SC=C(c4ccc(C)cc4)N2C3c2ccc(C)cc2)cc1` (configuration not stated), at Acetylcholinesterase [1], the IC50 came out at 1800 nM. For the same molecule, the inhibition at Acetylcholinesterase [2] stood at 60.4%.
As for `Cc1ccc(C2=CSC3=NC4=C(CNCC4=Cc4ccc(Br)cc4)C(c4ccc(Br)cc4)N23)cc1` (configuration not stated), at Acetylcholinesterase [1], the IC50 stood at 1010 nM. Further, the inhibition at Acetylcholinesterase [2] stood at 68.3%. The Activity result in data set [3] is “Non-Toxic”.
Consider `Cc1cccc(CN2C/C(=C\c3ccccc3)C(=O)/C(=C/c3ccccc3)C2)c1`, for which, on Acetylcholinesterase [1], the IC50 worked out at 3180 nM. Moreover, the inhibition at Acetylcholinesterase [2] turned out to be 63.1%.
Consider `Cc1ccc(C=C2CNCC3=C2N=C2SC=C(c4ccc5ccccc5c4)N2C3c2ccc(C)cc2)cc1` (configuration not stated), for which the IC50 at Acetylcholinesterase [1] is 980 nM. Also, on Acetylcholinesterase [2], the inhibition amounted to 69.6%. Further, in data set [3], the Activity result was “Non-Toxic”.
With `O=C1/C(=C/c2ccc(Br)cc2)CN(Cc2ccc3ccccc3c2)C/C1=C\c1ccc(Br)cc1`, the IC50 at Acetylcholinesterase [1] is 830 nM. Also, the inhibition on Acetylcholinesterase [2] stood at 67.2%. The Activity result in data set [3] is on record as “Non-Toxic”.
For `C(=C1CNCC2=C1N=C1SC=C(c3ccccc3)N1C2c1ccccc1)c1ccccc1` (configuration not stated), the inhibition at Acetylcholinesterase [2] amounted to 48.6%.
As to `Cc1ccc(C=C2CNCC3=C2N=C2SC=C(c4ccccc4)N2C3c2ccc(C)cc2)cc1` (configuration not stated), on Acetylcholinesterase [2], the inhibition was 45.7%.
As to `Clc1ccc(C=C2CNCC3=C2N=C2SC=C(c4ccc5ccccc5c4)N2C3c2ccc(Cl)cc2)cc1` (configuration not stated), at Acetylcholinesterase [1], the IC50 worked out at 1350 nM. The inhibition on Acetylcholinesterase [2] worked out at 62.8%.
For the molecule `Cc1cccc(CN2C/C(=C\c3ccc(Br)cc3)C(=O)/C(=C/c3ccc(Br)cc3)C2)c1`, the inhibition at Acetylcholinesterase [2] is 45.7%.
Turning to `Clc1ccc(C=C2CNCC3=C2N=C2SC=C(c4ccccc4)N2C3c2ccc(Cl)cc2)cc1` (configuration not stated), the inhibition on Acetylcholinesterase [2] was determined as 41.6%.
With `Cc1ccc(C2=CSC3=NC4=C(CNCC4=Cc4ccc(Cl)cc4)C(c4ccc(Cl)cc4)N23)cc1` (configuration not stated), the IC50 at Acetylcholinesterase [1] was determined as 1090 nM. The inhibition on Acetylcholinesterase [2] came out at 74.7%. In data set [3], the Activity entry is reported as “Non-Toxic”.
Consider `C(=C1CNCC2=C1N=C1SC=C(c3ccc4ccccc4c3)N1C2c1ccccc1)c1ccccc1` (configuration not stated), for which, on Acetylcholinesterase [2], the inhibition was 41.8%.
For `Brc1ccc(C=C2CNCC3=C2N=C2SC=C(c4ccc(Br)cc4)N2C3c2ccc(Br)cc2)cc1` (configuration not stated), the inhibition at Acetylcholinesterase [2] amounted to 48.3%.
Still for that read-out and setting: the value for `Brc1ccc(C2=CSC3=NC4=C(CNCC4=Cc4ccccc4)C(c4ccccc4)N23)cc1` (configuration not stated) was 48.7%.
With `O=C1/C(=C/c2ccccc2)CN(Cc2ccc3ccccc3c2)C/C1=C\c1ccccc1`, at Acetylcholinesterase [1], the IC50 came to 1930 nM. For the same molecule, the inhibition at Acetylcholinesterase [2] stood at 67.9%.
With `Cc1ccc(C2=CSC3=NC4=C(CNCC4=Cc4ccccc4)C(c4ccccc4)N23)cc1` (configuration not stated), the inhibition on Acetylcholinesterase [2] was 42.1%.
As for `Cc1ccc(/C=C2\CN(Cc3cccc(C)c3)C/C(=C\c3ccc(C)cc3)C2=O)cc1`, at Acetylcholinesterase [1], the IC50 turned out to be 3220 nM. Moreover, the inhibition on Acetylcholinesterase [2] stood at 59.8%.
The corresponding values for `Cc1ccc(C=C2CNCC3=C2N=C2SC=C(c4ccc(Br)cc4)N2C3c2ccc(C)cc2)cc1` (configuration not stated) are 2270 nM and 64.6%.
For the molecule `Cc1cccc(CN2C/C(=C\c3ccc(Cl)cc3)C(=O)/C(=C/c3ccc(Cl)cc3)C2)c1`, the inhibition at Acetylcholinesterase [2] worked out at 41.6%.
Consider `Brc1ccc(C=C2CNCC3=C2N=C2SC=C(c4ccccc4)N2C3c2ccc(Br)cc2)cc1` (configuration not stated), for which, on Acetylcholinesterase [1], the IC50 was found to be 1480 nM. Also, the inhibition on Acetylcholinesterase [2] amounted to 66.7%.
As for `Cc1ccc(/C=C2\CN(Cc3ccc4ccccc4c3)C/C(=C\c3ccc(C)cc3)C2=O)cc1`, the IC50 on Acetylcholinesterase [1] stood at 1590 nM. Also, the inhibition at Acetylcholinesterase [2] was determined as 72.6%.
`Clc1ccc(C=C2CNCC3=C2N=C2SC=C(c4ccc(Br)cc4)N2C3c2ccc(Cl)cc2)cc1` (configuration not stated): the inhibition on Acetylcholinesterase [2] is 41.6%.
